Laboratory results reported in article PMC9198545, “Pharmacokinetics and Pharmacodynamics of Fungal Defensin NZX Against Staphylococcus aureus-Induced Mouse Peritonitis Model” (Frontiers in Microbiology, 2022).
Converted amounts (≈) assume the structure as drawn. Read-outs that look alike come from different tables or passages of the source.

Legend:
[1] = system: S. aureus MSSA ATCC 25923; assay: microbe, parasite or virus in culture; settings: Staphylococcus aureus, ATCC25923|MSSA
Description: (§1) The MICs of NZX and other antibacterial agents against S. aureus strains were conducted according to the Clinical Laboratory Standards Institute (Watts et al., [2013]). […] The wells containing antibiotics were set as positive controls. Negative control wells contained a PBS buffer and bacterial suspension without antibacterial agents. The MIC value was defined as the lowest concentration of antibacterial agents at which no visible bacteria were observed. All MIC assays were performed independently in triplicate.

S. aureus E48 [2] = assay: microbe, parasite or virus in culture
Description: as §1

[3] = system: S. aureus MRSA ATCC 43300; assay: microbe, parasite or virus in culture
Description: as §1

S. aureus E48 [4] = assay type: in vivo, mouse; settings: for extension of survival time: 20 mg/kg intravenous single injection; for survival rate of the mice: 7 days, n = 6
Description: Each mouse was received a peritonitis by intraperitoneal injection of S. aureus E48 suspended in a PBS buffer (2 × 10^8 CFU/ml, 0.5 ml). […] After therapy, the survival conditions of the mice were recorded within 7 days.

S. aureus E48 [5] = assay: microbe, parasite or virus in culture; settings: for MIC: Staphylococcus aureus, E48, read-out: MIC after 30-day serial passage
Description: The development of drug resistance of S. aureus E48 induced by NZX and antibiotics was conducted as described previously (Li et al., [2017]). The MICs of antibacterial agents were measured according to the MICs testing method as described above. […] Then, the MIC values of the next passage were conducted again, and the experimental procedures were repeated for 30 days. The development of drug resistance was determined by the fold changes in MICs.

S. aureus E48 [6] = assay: MIC after cathepsin B treatment or in MHB at pH 5.0; assay type: cell-based, Staphylococcus aureus; settings: for MIC at pH 5.0 compared to pH 7.4 (increase): MHB adjusted to pH 5.0, lysosomal acid environment; for change of MIC in phagolysosomal proteinase environment: cathepsin B 16 μg/ml, pH 5.0 buffer, 37°C, 1 h
Description: To test the effect of phagolysosomal enzyme-cathepsin B (from bovine spleen, Sigma C7800) on the antibacterial activities of peptides, NZX was diluted to 640 μg/ml in a cathepsin buffer (5-mM L-cysteine, 20-mM sodium acetate, 1-mM EDTA, pH of 5.0) and incubated with 16 μg/ml enzyme solution at 37°C for 1 h. The MIC value of NZX against S. aureus E48 was examined. NZX without enzyme solution was set as the negative control. Additionally, to mimic the intracellular condition, the MHB medium was adjusted to a specific pH value of 5.0 to determine the MIC value of NZX against S. aureus E48 in the acidic environment (Wang et al., [2019]). In all experiments, clindamycin, linezolid, daptomycin, and ampicillin acted as antibiotic control.

S. aureus E48 [7] = assay: Survival rate and time-killing kinetic curves; assay type: cell-based, Staphylococcus aureus; settings: for Survival rate of S. aureus E48: 1/2 × to 2 × MIC for 2 h, 1 × 10^5 CFU/ml, mean n = 3; for time to complete killing of S. aureus E48: 2 × MIC
Description: Survival rate and time-killing kinetic curves experiments were conducted as described previously (Li et al., [2020b]). […] After incubation at various times (0, 15, 30, 60, 90, and 120 min), a volume of 100 μl of bacterial suspension was taken out from a flask and diluted to count. All assays were conducted independently in triplicate.

S. aureus E48 [8] = assay: MIC in physiological salt and serum media; assay type: cell-based, Staphylococcus aureus; settings: MHB adjusted to 1.25 mM CaCl2
Description: The physiological salt and serum stability of NZX were performed according to the previous report (Hirsch et al., [2019]).

[9] = system: intracellular S. aureus E48 in RAW 264.7; assay: Intracellular antibacterial activity in RAW 264.7 cells; assay type: cell-based, Staphylococcus aureus; settings: 1, 4, 16, 64 and 128 μg/ml, 24 h
Description: The antibacterial effects of NZX against intracellular S. aureus E48 in RAW 264.7 were determined according to a previous study (Wang et al., [2018]). The antibacterial concentrations of NZX against S. aureus E48 were set as 1, 4, 16, 64, and 128 μg/ml. Daptomycin was selected as a control because it is a polypeptide drug similar to NZX. In addition, the internalization and distribution assays of NZX in RAW 264.7 were conducted according to Wang et al. ([2019]). Briefly, RAW 264.7 cells were grown on culture dishes at 37°C for 24 h. FITC or FITC-NZX (1, 16, and 64 μg/ml) was added and incubated in the culture dishes for 24 h. The cells were washed two times with PBS and quenched by 0.04% trypan blue. Samples were analyzed by flow cytometry to determine the uptake of NZX. In distribution analysis, FITC or FITC-NZX at 64 μg/ml was added and incubated in the culture dishes for 24 h. The cells were washed two times with PBS, stained with 5 μg/ml wheat germ agglutinin (WGA)-conjugated Alexa Fluor 555 (ThermoFisher Scientific, USA) and Hoechst 33342 (ThermoFisher Scientific, USA) for 10 min, and observed by confocal microscopy (Leica TCS SP 5, Germany).

S. aureus E48 [10] = assay: Bacterial burden in organs and peritoneal fluid, mouse peritonitis model; assay type: in vivo; settings: 20 mg/kg, 24 h
Description: In this study, untreated mice that received a lethal dose of S. aureus (2 × 10^8 CFU/ml, 0.5 ml) began to die at 6 to 8 h, and all died before 24 h, which made it difficult for us to obtain the samples when the therapy effects after 24 h administration were analyzed. Therefore, the mice that received half lethal doses of S. aureus E48 (1 × 10^8 CFU/ml, 0.5 ml) were conducted in the following pharmacodynamics analysis. After 24 h therapy with NZX (5, 10, and 20 mg/kg) or daptomycin (20 mg/kg), organ tissues, including livers, lungs, spleens, hearts, and kidneys, were collected, homogenated, and plated to count bacterial burden. In addition, the total number of bacteria and intracellular bacteria counts in peritoneal fluids were determined as described by Wang et al. ([2018]). Briefly, the total bacterial CFU in the peritoneal fluid were quantified before any further procedures. In addition, the collected peritoneal fluid was centrifuged and washed to obtain peritoneal macrophage, and then extracellular bacteria were killed after treatment with 50 μg/ml lysostaphin at 37°C for 30 min. The cells were washed two times by PBS and suspended with 1 ml of cold sterile water for lysis, and the lysate was used to determine the intracellular bacterial burden.

[11] = ref Liu et al., 2020; cited from earlier work
Source text: However, plectasin had some limitations before clinical application, such as cytotoxicity and trypsin instability (Yang et al., [2019]). NZX (MW 4383.89 Da), a variant of plectasin with three mutation sites (D9S, M13I, and K32R), had the increased net charge (from +1 to +2) and hydrophobicity (from −0.695 to ...

[12] = parameters: method as in Andes et al., 2009; Brinch et al., 2009; settings: in human and mice serum, ref Andes et al., 2009, Brinch et al.; cited from earlier work
S. aureus E48 [13] = settings: ref Yang et al., 2019, cited from earlier work
Source text: NZX, a variant of plectasin, has garnered interest as an ideal therapeutic drug against S. aureus because of its ability to kill intracellular bacteria and good biocompatibility (Tenland et al., [2018]; Liu et al., [2020]). […] T ...

[14] = 1 × 10^5 CFU/ml, 16–18 h at 37°C, 96-well microplate, daptomycin with 1.25 mM calcium chloride, triplicate
[15] = text summary over two strains: S. aureus MSSA ATCC 25923 and S. aureus E48
[16] = 20 mg/kg intravenous single injection 2 h post-infection, 2 × 10^8 CFU/ml, 0.5 ml i.p.
[17] = 20 mg/kg intravenous two times (2 h and 8 h after infection)
[18] = repeated exposure at sub-MIC for 30 days

Compound	MIC [1, 14]	MIC [1, 15]	MIC (S. aureus E48 [2]; Staphylococcus aureus)	MIC ([3]; Staphylococcus aureus)	extension of survival time (S. aureus E48 [4])	survival rate of the mice (S. aureus E48 [4]; [16])	survival rate of the mice (S. aureus E48 [4]; [17])	MIC (S. aureus E48 [5])	MIC at pH 5.0 compared to pH 7.4 (increase) (S. aureus E48 [6])	change of MIC in phagolysosomal proteinase environment (S. aureus E48 [6])	Survival rate of S. aureus E48 (S. aureus E48 [7])	time to complete killing of S. aureus E48 (S. aureus E48 [7])	also measured
CC(=O)NC[C@H]1CN(c2ccc(N3CCOCC3)c(F)c2)C(=O)O1 [Linezolid]	2 µg/mL (≈ 5.93 µM)	1 to 2 µg/mL (≈ 2.96 to 5.93 µM)	1 µg/mL (≈ 2.96 µM)	2 µg/mL (≈ 5.93 µM)	2 to 4 days	all the mice were dead	did not improve the survival rate	2 µg/mL (≈ 5.93 µM)	did not influence	did not change	94.08–99.89%		lives extended (S. aureus E48 [4]; 20 mg/kg intravenous two times): 2 to 6 days; increase in the MIC value after 30-day serial passage (S. aureus E48 [5]; [18]): 2 fold
CCCCCCCCCC(=O)N[C@@H](Cc1c[nH]c2ccccc12)C(=O)N[C@H](CC(N)=O)C(=O)N[C@@H](CC(=O)O)C(=O)N[C@@H]1C(=O)NCC(=O)N[C@@H](CCCN)C(=O)N[C@@H](CC(=O)O)C(=O)N[C@H](C)C(=O)N[C@@H](CC(=O)O)C(=O)NCC(=O)N[C@H](CO)C(=O)N[C@@H]([C@H](C)CC(=O)O)C(=O)N[C@@H](CC(=O)c2ccccc2N)C(=O)O[C@@H]1C [Daptomycin]						16.7%	100%			did not change	0–83.03%	≤ 2 h	MIC (S. aureus E48 [2]): 1 µg/mL (≈ 0.617 µM); MIC ([3]; ATCC 43300): 0.5 µg/mL (≈ 0.309 µM); MIC after 30-day serial passage (S. aureus E48 [5]; [18]): 8 µg/mL (≈ 4.94 µM); decrease of MIC under the addition of 1.25-mM CaCl2 (S. aureus E48 [8]): 8–16 fold; reduction of intracellular S. aureus [9]: 89.74~98.53%; bacteria burdens of liver, lung and spleen compared with the untreated group (S. aureus E48 [10]): no obvious difference; reduction of intracellular bacteria burden in the peritoneal fluid (S. aureus E48 [10]; mean ± SD, n = 6): 0.66 ± 0.83 Log10 CFU/ml; reduction of total bacterial burden in the peritoneal fluid (S. aureus E48 [10]; mean ± SD, n = 6): 1.79 ± 1.05 Log10 CFU/ml
CC1(C)S[C@@H]2[C@H](NC(=O)[C@H](N)c3ccccc3)C(=O)N2[C@H]1C(=O)O [Ampicillin]	0.25 µg/mL (≈ 0.715 µM)	0.25 µg/mL (≈ 0.715 µM)	0.25 µg/mL (≈ 0.715 µM)	8 µg/mL (≈ 22.9 µM)	2 to 4 days	all the mice were dead	50%	16 µg/mL (≈ 45.8 µM)	did not influence	at least 4 fold	83.21–100.31%		
plectasin													hydrophobicity [11]: −0.695; net charge [11]: +1; protein-binding degree [12]: 90%; S. aureus E48 killed (S. aureus E48 [13]; 2 × MIC, within 1 h): approximately 85.85%; time to eliminate bacteria (S. aureus E48 [13]; 2 × MIC): ≤ 2 h; MIC (S. aureus E48 [13]; strain not given, compared with Table 2): 4 µg/mL
CCC[C@@H]1C[C@@H](C(=O)N[C@@H]([C@H]2O[C@H](SC)[C@H](O)[C@@H](O)[C@H]2O)[C@H](C)Cl)N(C)C1 [Clindamycin]									≤ 8 fold	at least 4 fold		≤ 2 h	
